In US20090099158A1, “TETRAHYDROISOQUINOLINE COMPOUNDS AS MODULATORS OF THE HISTAMINE H3 RECEPTOR” (priority 2007, published 2009):

Experiments:
[1] = molecular target: T1, human H3 receptor (Homo sapiens, UniProt Q9Y5N1); assay: Cyclic AMP Accumulation (human H3 receptor); type: cell-based; conditions: SK-N-MC cells expressing a reporter construct and the human H3 receptor; average; read-out: Human pA2 (converted)
T1 construct: expressed in transfected cells; host or cells: SK-N-MC sublines with reporter construct
T1 sequence (Q9Y5N1 whole entry): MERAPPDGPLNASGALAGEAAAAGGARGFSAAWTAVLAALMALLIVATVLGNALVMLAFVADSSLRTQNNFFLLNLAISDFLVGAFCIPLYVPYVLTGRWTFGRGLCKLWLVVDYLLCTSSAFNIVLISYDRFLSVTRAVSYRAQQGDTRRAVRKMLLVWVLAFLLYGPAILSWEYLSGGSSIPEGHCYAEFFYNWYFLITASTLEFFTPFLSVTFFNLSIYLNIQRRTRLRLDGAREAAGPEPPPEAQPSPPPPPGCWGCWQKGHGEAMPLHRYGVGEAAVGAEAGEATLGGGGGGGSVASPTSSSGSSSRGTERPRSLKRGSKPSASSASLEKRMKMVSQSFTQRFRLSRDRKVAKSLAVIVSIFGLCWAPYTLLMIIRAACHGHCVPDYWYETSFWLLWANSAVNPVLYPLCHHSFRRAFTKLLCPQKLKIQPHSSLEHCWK
Excerpt: (§1) Sublines of SK-N-MC cells were created that expressed a reporter construct and either the human or rat H3 receptor. The pA2 values were obtained as described by Barbier et al. (2004). Data for compounds tested in these assays are presented in Table 3, as an average of the results obtained (NT=not tested).

[2] = molecular target: T2, cloned human H3 receptors (Homo sapiens, UniProt Q9Y5N1); assay: H3 Receptor Binding (Human); conditions: cloned human H3 receptors stably expressed in SK-N-MC cells; average of the results obtained
T2 construct: expressed in transfected cells; host or cells: SK-N-MC cells
T2 sequence (Q9Y5N1 whole entry): as above
Protocol: Binding of compounds to the cloned human H3 receptors, stably expressed in SK-N-MC cells, was performed as described by Barbier, A. J. et al. (Br. J. Pharmacol. 2004, 143(5), 649-661). Data for compounds tested in this assay are presented in Table 1 as an average of the results obtained.

[3] = molecular target: T3, Rat H3 (Rattus norvegicus, UniProt Q9QYN8); assay: Cyclic AMP Accumulation (rat H3 receptor); type: cell-based; set-up: expressed in transfected cells; host or cells: SK-N-MC sublines with reporter construct; conditions: SK-N-MC cells expressing a reporter construct and the rat H3 receptor; average; read-out: Rat pA2 (converted)
T3 sequence (Q9QYN8 whole entry): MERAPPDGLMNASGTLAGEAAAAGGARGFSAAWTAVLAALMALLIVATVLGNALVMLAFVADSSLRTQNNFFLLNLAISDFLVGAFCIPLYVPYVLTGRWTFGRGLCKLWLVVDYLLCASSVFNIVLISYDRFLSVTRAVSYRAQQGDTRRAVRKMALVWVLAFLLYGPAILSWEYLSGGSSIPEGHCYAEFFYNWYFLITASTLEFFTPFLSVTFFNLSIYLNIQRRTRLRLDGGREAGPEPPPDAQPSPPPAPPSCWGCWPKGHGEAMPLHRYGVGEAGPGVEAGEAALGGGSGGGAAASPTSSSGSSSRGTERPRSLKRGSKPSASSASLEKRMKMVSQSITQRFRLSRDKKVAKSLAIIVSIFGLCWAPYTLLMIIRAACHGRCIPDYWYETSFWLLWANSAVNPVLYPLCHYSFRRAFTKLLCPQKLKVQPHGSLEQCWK
Excerpt: as §1

[4] = molecular target: T3, Rat H3; assay: H3 Receptor Binding (Rat); set-up: A rat brain without cerebellum (Zivic Laboratories Inc., Pittsburgh, Pa.) was homogenized; tissue Zivic Laboratories Inc; host or cells: rat brain without cerebellum (membranes); conditions: rat brain (without cerebellum) membranes; 0.8 nM N-[3H]-α-methylhistamine, 60 min at 25° C.; IC50 converted to Ki; average
Protocol: A rat brain without cerebellum (Zivic Laboratories Inc., Pittsburgh, Pa.) was homogenized in 50 mM Tris-HCl/5 mM EDTA and centrifuged at 1,000 rpm for 5 min. The supernatant was removed and recentrifuged at 15,000 rpm for 30 min. Pellets were rehomogenized in 50 mM Tris/5 mM EDTA (pH 7.4). Membranes were incubated with 0.8 nM N-[^3H]-α-methylhistamine plus/minus test compounds for 60 min at 25° C. and harvested by rapid filtration over GF/C glass fiber filters (pretreated with 0.3% polyethylenimine) followed by four washes with buffer. Nonspecific binding was defined in the presence of 100 μM histamine. Inhibitory concentration (responsible for 50% inhibition of maximal effect, IC50) values were determined by a single site curve-fitting program (GraphPad, San Diego, Calif.) and converted to Ki values based on a N-[^3H]-α-methylhistamine dissociation constant (Kd) of 0.8 nM. Data for compounds tested in this assay are presented in Table 2 as an average of the results obtained.

SMILES	Kb [1]	Ki [2]	Kb [3]	Ki [4]
CC(C)N1CCCN(C(=O)c2ccc3c(c2)CCNC3)CC1 [Example 5, (4-Isopropyl-[1,4]diazepan-1-yl)-(1,2,3,4-tetrahydro-isoquinolin-6-yl)-methanone]	1.55 nM	3 nM	15.8 nM	–
O=C(c1ccc2c(c1)CCN(Cc1ccsc1)C2)N1CCN(C2CCC2)CC1 [Example 15, (4-Cyclobutyl-piperazin-1-yl)-(2-thiophen-3-ylmethyl-1,2,3,4-tetrahydro-isoquinolin-6-yl)-methanone]	1.05 nM	4 nM	–	–
O=C(c1ccc2c(c1)CCN(Cc1ccccc1)C2)N1CCN(C2CCC2)CC1 [Example 18, (2-Benzyl-1,2,3,4-tetrahydro-isoquinolin-6-yl)-(4-cyclobutyl-piperazin-1-yl)-methanone]	1.29 nM	5 nM	2.4 nM	2 nM
CC(C)N1CCN(C(=O)c2ccc3c(c2)CCN(Cc2ccc(Cl)cc2)C3)CC1 [Example 22, [2-(4-Chloro-benzyl)-1,2,3,4-tetrahydro-isoquinolin-6-yl]-(4-isoproplyl-piperazin-1-yl)-methanone]	10.5 nM	5 nM	30.9 nM	–
O=C(c1ccc2c(c1)CN(Cc1ccccc1)CC2)N1CCN(C2CCC2)CC1 [Example 26, (2-Benzyl-1,2,3,4-tetrahydro-isoquinolin-7-yl)-(4-cyclobutyl-piperazin-1-yl)-methanone]	17.8 nM	2 nM	–	–
O=C(c1ccc2c(c1)CCN(C(=O)c1ccccc1)C2)N1CCN(C2CCC2)CC1 [Example 27, (2-Benzoyl-1,2,3,4-tetrahydro-isoquinolin-6-yl)-(4-cyclobutyl-piperazin-1-yl)-methanone]	–	9 nM	–	84 nM
O=C(c1ccc2c(c1)CCN(C(=O)C1CCCC1)C2)N1CCN(C2CCC2)CC1 [Example 32, [6-(4-Cyclobutyl-piperazine-1-carbonyl)-3,4-dihydro-1H-isoquinolin-2-yl]-cyclopentyl-methanone]	8.51 nM	5 nM	15.1 nM	135 nM
O=C(c1ccc2c(c1)CCN(C(=O)C1CCCCC1)C2)N1CCN(C2CCC2)CC1 [Example 33, [6-(4-Cyclobutyl-piperazine-1-carbonyl)-3,4-dihydro-1H-isoquinolin-2-yl]-cyclohexyl-methanone]	–	8 nM	13.8 nM	123 nM
CCC(=O)N1CCc2cc(C(=O)N3CCC[C@H]3CN3CCCC3)ccc2C1 [Example 45, (S)-1-[6-(2-Pyrrolidin-1-ylmethyl-pyrrolidine-1-carbonyl)-3,4-dihydro-1H-isoquinolin-2-yl]-propan-1-one]	2.82 nM	6 nM	20.4 nM	–
CCCC(=O)N1CCc2cc(C(=O)N3CCC[C@H]3CN3CCCC3)ccc2C1 [Example 46, (S)-1-[6-(2-Pyrrolidin-1-ylmethyl-pyrrolidine-1-carbonyl)-3,4-dihydro-1H-isoquinolin-2-yl]-butan-1-one]	2.82 nM	4 nM	18.2 nM	–
O=C(c1ccc2c(c1)CCN(C(=O)c1ccc(Cl)cc1)C2)N1CCCN(C2CCC2)CC1 [Example 133, (4-Chloro-phenyl)-[6-(4-cyclobutyl-[1,4]diazepane-1-carbonyl)-3,4-dihydro-1H-isoquinolin-2-yl]-methanone]	–	2 nM	–	18 nM
O=C(c1ccc2c(c1)CCN(C1CCC1)C2)N1CCN2CCCCC2C1 (centres unmarked) [Example 187, (2-Cyclobutyl-1,2,3,4-tetrahydro-isoquinolin-6-yl)-(octahydro-pyrido[1,2-a]pyrazin-2-yl)-methanone]	–	3 nM	–	30 nM
O=C(c1ccc2c(c1)CCN(C1CCCC1)C2)N1CCN2CCCCC2C1 (centres unmarked) [Example 192, (2-Cyclopentyl-1,2,3,4-tetrahydro-isoquinolin-6-yl)-(octahydro-pyrido[1,2-a]pyrazin-2-yl)-methanone]	–	1 nM	–	–
CC(C)(C)C1CCN(C(=O)c2ccc3c(c2)CCN(C2CCCC2)C3)CC1 [Example 193, (4-tert-Butyl-piperidin-1-yl)-(2-cyclopentyl-1,2,3,4-tetrahydro-isoquinolin-6-yl)-methanone]	–	240 nM	–	–
CC(C)(O)C1CCN(C(=O)c2ccc3c(c2)CCN(C2CCCC2)C3)CC1 [Example 194, (2-Cyclopentyl-1,2,3,4-tetrahydro-isoquinolin-6-yl)-[4-(1-hydroxy-1-methyl-ethyl)-piperidin-1-yl]-methanone]	–	2700 nM	–	–

Second part, the compound after the results:

Kb [1]	Ki [2]	Kb [3]	Ki [4]	SMILES
0.661 nM	1 nM	4.47 nM	–	CC(C)N1CCCN(C(=O)c2ccc3c(c2)CCN(Cc2ccccc2)C3)CC1 [Example 11, (2-Benzyl-1,2,3,4-tetrahydro-isoquinolin-6-yl)-(4-isopropyl-[1,4]diazepan-1-yl)-methanone]
0.513 nM	1 nM	2.34 nM	–	O=C(c1ccc2c(c1)CCN(C(=O)c1ccccc1)C2)N1CCCN(C2CCC2)CC1 [Example 35, [6-(4-Cyclobutyl-[1,4]diazepane-1-carbonyl)-3,4-dihydro-1H-isoquinolin-2-yl]-phenyl-methanone]
0.49 nM	1 nM	3.8 nM	–	O=C(c1ccc2c(c1)CN(C(=O)c1ccccc1)CC2)N1CCCN(C2CCC2)CC1 [Example 36, [7-(4-Cyclobutyl-[1,4]diazepane-1-carbonyl)-3,4-dihydro-1H-isoquinolin-2-yl]-phenyl-methanone]
0.38 nM	1 nM	3.02 nM	–	O=C(c1ccc2c(c1)CCN(C(=O)C1CCCC1)C2)N1CCCN(C2CCC2)CC1 [Example 39, [6-(4-Cyclobutyl-[1,4]diazepane-1-carbonyl)-3,4-dihydro-1H-isoquinolin-2-yl]-cyclopentyl-methanone]
0.355 nM	1 nM	2.88 nM	–	O=C(c1ccc2c(c1)CCN(C(=O)C1CCCCC1)C2)N1CCCN(C2CCC2)CC1 [Example 40, [6-(4-Cyclobutyl-[1,4]diazepane-1-carbonyl)-3,4-dihydro-1H-isoquinolin-2-yl]-cyclohexyl-methanone]
–	1 nM	–	11 nM	O=C(c1ccc2c(c1)CCN(C(=O)c1cccc(Cl)c1)C2)N1CCCN(C2CCC2)CC1 [Example 135, (3-Chloro-phenyl)-[6-(4-cyclobutyl-[1,4]diazepane-1-carbonyl)-3,4-dihydro-1H-isoquinolin-2-yl]-methanone]
–	1 nM	–	16 nM	O=C(c1ccc2c(c1)CCN(C(=O)c1ccccc1F)C2)N1CCCN(C2CCC2)CC1 [Example 136, [6-(4-Cyclobutyl-[1,4]diazepane-1-carbonyl)-3,4-dihydro-1H-isoquinolin-2-yl]-(2-fluoro-phenyl)-methanone]
–	1 nM	–	8 nM	O=C(c1ccc2c(c1)CCN(C(=O)C1CCOC1)C2)N1CCCN(C2CCC2)CC1 (centres unmarked) [Example 137, [6-(4-Cyclobutyl-[1,4]diazepane-1-carbonyl)-3,4-dihydro-1H-isoquinolin-2-yl]-(tetrahydro-furan-3-yl)-methanone]
–	1 nM	–	7 nM	CCC(=O)N1CCc2cc(C(=O)N3CCCN(C4CCC4)CC3)ccc2C1 [Example 139, 1-[6-(4-Cyclobutyl-[1,4]diazepane-1-carbonyl)-3,4-dihydro-1H-isoquinolin-2-yl]-propan-1-one]
–	1 nM	–	28 nM	Cc1ccc(C(=O)N2CCc3cc(C(=O)N4CCCN(C5CCC5)CC4)ccc3C2)cc1F [Example 142, [6-(4-Cyclobutyl-[1,4]diazepane-1-carbonyl)-3,4-dihydro-1H-isoquinolin-2-yl]-(3-fluoro-4-methyl-phenyl)-methanone]
–	1 nM	–	32 nM	O=C(c1ccc2c(c1)CCN(C(=O)c1ccc(F)cc1F)C2)N1CCCN(C2CCC2)CC1 [Example 144, [6-(4-Cyclobutyl-[1,4]diazepane-1-carbonyl)-3,4-dihydro-1H-isoquinolin-2-yl]-(2,4-difluoro-phenyl)-methanone]
–	1 nM	–	1 nM	CC(C)N1CCc2cc(C(=O)N3CCCN(C4CCC4)CC3)ccc2C1 [Example 177, (4-Cyclobutyl-[1,4]diazepan-1-yl)-(2-isopropyl-1,2,3,4-tetrahydro-isoquinolin-6-yl)-methanone]
